Test results published in patent US9301942B2, “Use of icaritin for the preparation of composition for treating cancer” (priority 2013, dated 2016).

What was measured:
[1] = system: patients suffering from advanced solid tumors; assay: Phase Ib fixed-dose study, (serious) adverse events; type: in vivo, humans
Description: (§1) 1.1 Phase 1a: Dose-escalating study with patients suffering from advanced breast cancer. Cohorts of 3-6 patients received one dose, and 6 planned doses of 50, 100, 200, 400, 800, 1600 mg/day were orally administered to the patients over at least a 28-day cycle. 1.2 Phase 1b: Fixed doses of Icaritin with 600 mg and 800 mg BID (Bis in diem) were administered to patients suffering from advanced solid tumors for at least a 28 day cycle. 2. Major Inclusion Criteria
(§2) Phase Ib: Advanced cancer patients without standard treatment, especially HCC patients with Child-Pugh Class A or B liver function, were selected.
(§3) Phase Ib: Patients with the following conditions were excluded: ECOG score≧2, ANC≦1500 cells/μL, platelet≦80,000 cells/μL, Hb≦9.0 g/dL, bilirubin>1.5×ULN, AST or ALT>5×ULN, or albumin<2.8 g/dL.
(§4) The patients with the following conditions were also excluded: prior systemic chemotherapy, chemoembolization, percutaneous ethanol injection, or surgery for HCC<30 days.

[2] = Phase Ia pharmacokinetics, plasma concentration before or after meal; type: in vivo, humans; conditions: for half-life: female, human, plasma, oral
Description: as §1

[3] = system: patients suffering from advanced breast cancer; assay: Phase Ia dose-escalating study, adverse events; type: in vivo; conditions: up to 1600 mg/d
Description: “Maximum Tolerated Dose (MTD)” means the highest dose of a radiological or pharmacological treatment that will produce the desired effect without unacceptable toxicity. In the present invention, MTD is one dose level below the cohort in which 2 patients experienced a drug-related dose limited toxicity in cycle 1.
(§5) The clinical trial includes two phases: Phase I aims to seek the maximum tolerated dose in the patients. Phase II aims to obtain the administration dosage to the patient treatments.
as §1
(§6) Phase Ia: Females of age≧18 years old and ≦65 years old, suffering from advanced breast cancer which was not responsive to previous standard treatments, were selected based on Eastern Cooperative Oncology Group (ECOG) score≦1.

[4] = system: HCC patients; assay: Phase Ib efficacy and survival of HCC patients; type: in vivo, humans
Description: “CR” means a complete response was achieved after treatment, that is, all signs of cancer in the patient disappeared in response to the treatment.
“SD” means a stable disease state was seen, that is, at the end of the treatment, the disease state of the patient was little changed from pre-treatment conditions.
“OS” means overall survival days of patients. Overall survival is an indication of the proportion of people within a group who are expected to be alive after a specified time, taking into account death due to any cause, both related and unrelated to the cancer in question.
“TTP” means time to progression in the patients, that is, the length of time from the date of diagnosis or the start of treatment for a disease until the disease starts to get worse or spread to other parts of the body. In a clinical trial, measuring the time to progression is one way to see how well a new treatment works.
as §1, §2, §3, §4

[5] = system: patients suffering from advanced breast cancer; assay: Phase Ia dose-escalating study, tumor assessment every 28 days; type: in vivo, humans
Description: as §5, §1, §6
Tumor assessment was performed every 28 days. […] Further, 1 patient completed 9 cycles.

[6] = 600 mg bid (n = 12), based on evaluable patients, assessment every 2 cycles
[7] = 800 mg bid (n = 5), based on evaluable patients, assessment every 2 cycles

COc1ccc(-c2oc3c(CC=C(C)C)c(O)cc(O)c3c(=O)c2O)cc1 [Icaritin]
G2 drug-related adverse events ([1]; 600 mg and 800 mg BID): no G2 drug-related adverse events was observed | Serious adverse event Cardiac sudden death, No ([1]; dose 600): 1 | Serious adverse event Cardiac sudden death, outcomes ([1]; dose 600): death | Serious adverse event Cardiac sudden death, relationship ([1]; dose 600): Unlikely related | Serious adverse event Dyspnea, No ([1]; dose 600): 2 | Serious adverse event Dyspnea, outcomes ([1]; dose 600): Death | Serious adverse event Dyspnea, relationship ([1]; dose 600): Not related | Serious adverse event Liver abscess, No ([1]; dose 600): 1 | Serious adverse event Liver abscess, outcomes ([1]; dose 600): unresolved | Serious adverse event Liver abscess, relationship ([1]; dose 600): Not related | Serious adverse event epilepsy, No ([1]; dose 600): 1 | Serious adverse event epilepsy, outcomes ([1]; dose 600): unresolved | Serious adverse event epilepsy, relationship ([1]; dose 600): Not related | Serious adverse event GI bleeding, No ([1]; dose 600/800): 2 | Serious adverse event GI bleeding, outcomes ([1]; dose 600/800): resolved/death | Serious adverse event GI bleeding, relationship ([1]; dose 600/800): Not related | Serious adverse event Sepsis, No ([1]; dose 800): 1 | Serious adverse event Sepsis, outcomes ([1]; dose 800): resolved | Serious adverse event Sepsis, relationship ([1]; dose 800): Not related | Serious adverse effect of pneumonia, relationship to drug ([1]; only one observed during study): not considered drug-related | Plasma concentration after a meal versus fasting ([2]; 800 mg once daily, FIG. 1): higher | Absorption saturation ([2]; 1600 mg): absorption saturation occurs | Plasma concentration after a meal versus fasting ([2]; 1600 mg once daily, FIG. 2): higher | Plasma concentration versus dose ([2]; 400, 800 and 1600 mg once daily after meal, FIG. 3): increases with dose but not in a completely linear pattern | Bioavailability, post-meal (fed) dosing versus fasting dosing ([2]; 800 and 1600 mg): better bioavailability in fed dosing | half-life ([2]; 800 mg Icaritin BID): 4.8 ± 2.7 h | half-life ([2]; 1600 mg Icaritin BID): 4.5 ± 0.8 h | Maximum plasma concentration at 800 mg compared with 1600 mg ([2]; once daily after meal, FIG. 3): close to the plasma concentration of 1600 mg Icaritin | Tolerability in patients with advanced malignancies [3]: well tolerated | Dose tolerated toxicity ([3]; this phase of clinical trial): no dose tolerated toxicity was found | Best response PD, patients (%) [4, 6]: 4 (40%) patients (%) | Best response PR, patients (%) [4, 6]: 1 (10%) patients (%) | Best response SD, patients (%) [4, 6]: 5 (50%) patients (%) | Best response PD, patients (%) [4, 7]: 3 (60%) patients (%) | Best response PR, patients [4, 7]: 0 patients | Best response SD, patients [4, 7]: 0 patients | Median OS of HCC patients ([4]; Phase Ib, 17 patients analyzed, 95% CI:32-265, FIG. 7): 113 days | Median TTP of HCC patients ([4]; Phase Ib, FIG. 6): 112 days | AFP of HCC patient, as treatment progressed ([4]; after decrease under treatment, FIG. 5): 3.53 ng/mL | Abdominal lymph nodes, B-mode ultrasound image of an HCC patient ([4]; after eight months of treatment, FIG. 4a/4b): complete disappearance of abdominal lymph nodes | AFP of HCC patient, start value ([4]; before the decrease, FIG. 5): 5216 ng/mL | Efficacy in hepatocellular cancer ([4]; overall conclusion): promising efficacy | Tumor response (CR or PR) ([5]; Phase Ia, 50-1600 mg/day oral, assessment every 28 days): No CR or PR was observed | Anti-tumor effect in advanced breast cancer ([5]; overall conclusion): potential anti-tumor effect
